# Values of other authors in patent US11311608B2, “Methods for treating breast and other cancers by targeting argininosuccinate synthetase 1-deficiency” (CITY OF HOPE, priority 2013, dated 2022).
# Conditions: versus arginase
substance,measurement,value
Arginine deiminase,effectiveness at depleting arginine from the environment relative to arginase,300 fold
